Test results published in article PMC5442318, “Hundreds of dual-stage antimalarial molecules discovered by a functional gametocyte screen” (Nature Communications, 2017).

Key:
[1] = tested on: P. falciparum asexual blood stages; conditions: TCAMS asexual blood stage data; ref 1 (Gamo, F. J. et al., Nature 465, 305-310, 2010); read-out: Pf Asexual blood stages XC50; cited from earlier work
[2] = tested on: P. falciparum stages IV–V gametocytes; experiment: Gametocytocidal ATP-depletion assay (gametocyte ATP bioluminescence); format: cell-based, Plasmodium falciparum
Outline: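 Purified stage IV–V gametocytes (12,500/well) incubated with compound for 48 h at 37 °C under 3% O2/5% CO2. ATP measured by BacTiter-Glo luminescence as a viability surrogate; hits tested at 2 μM single concentration.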

HepG2 cells = experiment: HepG2 cytotoxicity assay; format: cell-based; conditions: mean; HepG2 cells
Outline: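 Post-incubation CellTiter-Glo luminescence; 30 min RT equilibration, 10 min RT stabilization before reading.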

[3] = tested on: P. falciparum stage V female gametocytes; experiment: P. falciparum female gametocyte activation assay (Pf FGAA), 24 h or 48 h preincubation, Pfs25 expression readout; format: cell-based, Plasmodium falciparum NF54; conditions: mean; P. falciparum female gametocyte activation assay; read-out: Gametocytes mean Pf FGAA IC50
Outline: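 Purified stage V gametocytes from P. falciparum NF54 gametocyte cultures were exposed to compounds for 24 h or 48 h at 37 °C under 3% O2/5% CO2, then activated by temperature drop plus xanthurenic acid. Activated females were stained with Cy3-anti-Pfs25 (0.5 μg ml^−1) for 24 h at 26 °C and counted by high-content imaging; pIC50 by nonlinear regression.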

Row | SMILES | IC50 [1] [µM] | Gametocytes mean ATP inhibition at 2µM [2] [%] | HepG2 cells mean TOX50 (HepG2 cells) [µM] | IC50 [3] [µM]
1 | Cc1ccc(Cn2nc(Cl)c(N3CCCNCC3)cc2=O)cc1NC(=O)Nc1ccc(-c2ccccc2)cc1.O=C(O)C(F)(F)F [TCMDC-141697] | 0.67 | -13.94 | 7.25 | 0.99
2 | Cc1c(Cn2nc(Cl)c(N3CCNCC3)cc2=O)cccc1NC(=O)Nc1ccc(-c2ccccc2)cc1.O=C(O)C(F)(F)F [TCMDC-141699] | 1.38 | -8.75 | 4.22 | 4.91
3 | Cl.O=S(=O)(Nc1cc2c(cc1OCCCN1CCCCC1)CCNCC2)c1ccc(-c2ccc(Cl)cc2)cc1 [TCMDC-141753] | 1.01 | -0.045 | 4.37 | 2
4 | CN1CCc2cc(NS(=O)(=O)c3ccc(-c4ccc(Cl)cc4)cc3)c(OCCCN3CCCCC3)cc2CC1.Cl [TCMDC-141754] | 0.96 | 6.66 | 2.23 | 0.97
5 | Cc1cc(F)ccc1-c1nc(NCCCNCCc2ccccc2)nc2c1ccc(=O)n2-c1c(F)cccc1F.O=C(O)C(F)(F)F [TCMDC-141804] | 0.19 | 82.21 | 12.59 | 3.61
6 | Cc1ccc(Cn2ncc(N3CCCNCC3)c(Cl)c2=O)cc1NC(=O)Nc1ccc(-c2ccccc2)cc1 [TCMDC-141924] | 0.63 | -4.47 | 7.86 | 1.73
7 | Cc1c(Cn2ncc(N3CCC(N)CC3)c(Cl)c2=O)cccc1NC(=O)Nc1ccc(-c2ccccc2)cc1.O=C(O)C(F)(F)F [TCMDC-141931] | 0.7 | 22.47 | 22.90 | 1.09
8 | O=C(O)CCSSc1cccc[n+]1[O-] [TCMDC-141973] | 0.81 | 100.49 | 19.05 | 0.04
9 | Nc1nc(N)c2cc(NC(=O)c3ccc(Cl)c(Cl)c3)ccc2n1 [TCMDC-141982] | 0.15 | 1.96 | 2.14 | 1.59
10 | Cl.OC(CNCCCCCCNCC(O)c1ccc(Cl)c(Cl)c1)c1ccc(Cl)c(Cl)c1 (stereo not drawn) [TCMDC-141987] | 0.92 | 0.38 | 4.27 | 0.9
11 | Cl.N=C1C=C(N)C(=O)c2ccccc21 [TCMDC-141992] | 1.05 | 55.55 | 0.52 | 11.9
12 | CCn1c2ccccc2c2cc(C=NN=c3cc(C)[nH]c4ccccc34)ccc21 [TCMDC-142186] | 0.31 | 36.64 | 5.82 | 4.15
13 | Cc1c(N=O)cc(C(C)(C)C)c(O)c1C(=O)Nc1ccc([N+](=O)[O-])cc1Cl [TCMDC-142233] | 0.77 | -7.78 | 1.78 | 1.17
14 | Cl.Nc1c(I)cc(C(=O)Nc2ccc3nc4c(c(N)c3c2)CCCC4)cc1I [TCMDC-142289] | 0.14 | 70.94 | 4.52 | 0.78
15 | O=c1c(NCCCN(Cc2ccc(F)cc2)c2ccccn2)c(NCc2cccnc2)c1=O [TCMDC-142311] | 0.06 | 58.25 | >100 | 0.36
